Biological target: T1, oestrogen receptor (ER) (Homo sapiens, UniProt P03372)
T1 construct: These MVLN cells express, along with the functional oestrogen receptor (ER), a reporter construct; endogenous in cells; host or cells: MVLN cells (MCF7 derivative with ER-responsive luciferase reporter)
T1 sequence (P03372 1-595): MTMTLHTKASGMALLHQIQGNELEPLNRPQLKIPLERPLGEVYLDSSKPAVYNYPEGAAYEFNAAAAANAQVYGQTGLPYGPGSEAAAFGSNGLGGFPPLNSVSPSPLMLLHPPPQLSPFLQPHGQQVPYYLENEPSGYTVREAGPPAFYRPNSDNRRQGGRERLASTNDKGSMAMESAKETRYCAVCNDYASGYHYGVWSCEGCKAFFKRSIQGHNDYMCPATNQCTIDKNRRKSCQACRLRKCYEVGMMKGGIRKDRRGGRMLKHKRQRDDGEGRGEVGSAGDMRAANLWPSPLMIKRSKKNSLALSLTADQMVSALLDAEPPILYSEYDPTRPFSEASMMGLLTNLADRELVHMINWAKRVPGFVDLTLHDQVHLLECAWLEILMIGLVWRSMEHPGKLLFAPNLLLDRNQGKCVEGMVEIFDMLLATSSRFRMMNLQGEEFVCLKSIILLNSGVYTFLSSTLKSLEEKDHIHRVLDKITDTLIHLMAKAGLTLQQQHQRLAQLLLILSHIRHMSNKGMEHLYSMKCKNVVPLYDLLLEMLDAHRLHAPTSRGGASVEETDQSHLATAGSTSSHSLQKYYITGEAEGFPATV
Assay: Anti-oestrogenic action in MVLN cells (inhibition of estradiol-induced luciferase, transactivation antagonism)
Type: cell-based
Conditions: inhibition of estradiol-induced luciferase activity, read-out: Anti-oestrogenic action in vitro: MVLN transactivation antagonism IC50
Excerpt: The anti-oestrogenic action of the claimed pharmacological compounds was investigated in so-called MVLN cells in vitro. MVLN cells are derivatives of the hormone-responsive MCF7 breast cancer cells known by a person skilled in the art. These MVLN cells express, along with the functional oestrogen receptor (ER), a reporter construct, which under ER-activation expresses luciferase. Determination of the activity of the induced luciferase permits a direct conclusion on the oestrogen properties of substances. To investigate the anti-oestrogenic properties of the pharmacological compounds, they were investigated in the presence of oestrogen for their potential for inhibiting the luciferase signal induced by estradiol.
The claimed pharmacological test substances were investigated in MVLN cells for their anti-oestrogenic potential, as described (see Table 2).

Compound `CN(CCCCCCC1=C(c2ccccc2)CCCc2c1ccc(O)c2Cl)CCCCS(=O)(=O)CCCC(F)(F)C(F)(F)F` [Example 103, 4-Chloro-9-[6-(methyl{4-[(4,4,5,5,5-pentafluoropentyl)sulphonyl]butyl}amino)hexyl]-8-phenyl-6,7-dihydro-5H-benzo[7]annulen-3-ol] has an IC50 of 26 nM.
`CC(C)(O)CN(CCCCCCC1=C(c2ccccc2)CCCc2cc(O)ccc21)CCC[S+]([O-])CCCC(F)(F)C(F)(F)F` (racemic) [Example 74, 9-{6-[(2-Hydroxy-2-methylpropyl){3-[(RS)-(4,4,5,5,5-pentafluoropentyl)sulphinyl]propyl}amino]hexyl}-8-phenyl-6,7-dihydro-5H-benzo[7]annulen-3-ol] was tested, and the IC50 was 3 nM.
With `CN(CCCCCCC1=C(c2cccc(O)c2)CCCc2cc(O)ccc21)CCCCS(=O)(=O)CCCC(F)(F)C(F)(F)F` [Example 15, 8-(3-Hydroxyphenyl)-9-[6-(methyl{4-[(4,4,5,5,5-pentafluoropentyl)sulphonyl]butyl}amino)hexyl]-6,7-dihydro-5H-benzo[7]annulen-3-ol] the IC50 was 3 nM.
`CN(CCCCCCC1=C(c2ccccc2)CCCc2cc(O)ccc21)CCCCS(=O)(=O)CCCC(F)(F)C(F)(F)F` [Example 67, 9-[6-(Methyl{4-[(4,4,5,5,5-pentafluoropentyl)sulphonyl]butyl}amino)hexyl]-8-phenyl-6,7-dihydro-5H-benzo[7]annulen-3-ol] gave an IC50 of 3 nM.
With `CN(CCCCCCC1=C(c2ccccc2)CCCc2cc(O)ccc21)CCCS(=O)(=O)CCC(F)(F)F` [Example 60, 9-[6-(Methyl{3-[(3,3,3-trifluoropropyl)sulphonyl]propyl}amino)hexyl]-8-phenyl-6,7-dihydro-5H-benzo[7]annulen-3-ol] the IC50 was 26 nM.
`COCCCN(CCCCCCC1=C(c2cccc(O)c2)CCCc2cc(O)ccc21)CCCS(=O)(=O)CCCC(F)(F)C(F)(F)F` [Example 107, 8-(3-Hydroxyphenyl)-9-{6-[(3-methoxypropyl){3-[(4,4,5,5,5-pentafluoropentyl)sulphonyl]propyl}amino]hexyl}-6,7-dihydro-5H-benzo[7]annulen-3-ol] gave an IC50 of 3 nM.
`CN(CCCCCCC1=C(c2ccc(F)c(O)c2)CCCc2cc(O)c(F)cc21)CCCS(=O)(=O)CCCC(F)(F)F` [Example 127, 2-Fluoro-8-(4-fluoro-3-hydroxyphenyl)-9-[6-(methyl{3-[(4,4,4-trifluorobutyl)sulphonyl]propyl}amino)hexyl]-6,7-dihydro-5H-benzo[7]annulen-3-ol] showed an IC50 of 6 nM.
For `[O-][S+](CCCN(CCCO)CCCCCCC1=C(c2ccccc2)CCCc2cc(O)ccc21)CCC(F)(F)F` (racemic) [Example 80, 9-{6-[(3-Hydroxypropyl){3-[(RS)-(3,3,3-trifluoropropyl)sulphinyl]propyl}amino]hexyl}-8-phenyl-6,7-dihydro-5H-benzo[7]annulen-3-ol], the IC50 was 9 nM.
Compound `CN(CCCCCCC1=C(c2ccc(F)c(O)c2)CCCc2c1ccc(O)c2F)CCCCS(=O)(=O)CCC(F)(F)F` [Example 119, 4-Fluoro-8-(4-fluoro-3-hydroxyphenyl)-9-[6-(methyl{4-[(3,3,3-trifluoropropyl)sulphonyl]butyl}amino)hexyl]-6,7-dihydro-5H-benzo[7]annulen-3-ol] has an IC50 of 7 nM.
`CN(CCCCCC1=C(c2ccccc2)CCCc2cc(O)ccc21)CCCC[S+]([O-])CCCC(F)(F)C(F)(F)F` (racemic) [Example 84, 9-[5-(Methyl{4-[(RS)-(4,4,5,5,5-pentafluoropentyl)sulphinyl]butyl}amino)pentyl]-8-phenyl-6,7-dihydro-5H-benzo[7]annulen-3-ol] showed an IC50 of 31 nM.
Compound `O=S(=O)(CCCN(CCCO)CCCCCCC1=C(c2ccccc2)CCCc2cc(O)ccc21)CCCC(F)(F)C(F)(F)F` [Example 73, 9-{6-[(3-Hydroxypropyl){3-[(4,4,5,5,5-pentafluoropentyl)sulphonyl]propyl}amino]hexyl}-8-phenyl-6,7-dihydro-5H-benzo[7]annulen-3-ol] has an IC50 of 17 nM.
Compound `CC(C)(O)CN(CCCCCCC1=C(c2ccccc2)CCCc2cc(O)ccc21)CCCS(=O)(=O)CCCC(F)(F)C(F)(F)F` [Example 75, 9-{6-[(2-Hydroxy-2-methylpropyl){3-[(4,4,5,5,5-pentafluoropentyl)sulphonyl]propyl}amino]hexyl}-8-phenyl-6,7-dihydro-5H-benzo[7]annulen-3-01] has an IC50 of 14 nM.
In the case of `CN(CCCCCC1=C(c2ccc(S(C)(=O)=O)cc2)CCCc2cc(O)ccc21)CCCS(=O)(=O)CCCC(F)(F)C(F)(F)F` [Example 47, 8-(4-Mesylphenyl)-9-[5-(methyl{3-[(4,4,5,5,5-pentafluoropentyl)sulphonyl]propyl}amino)pentyl]-6,7-dihydro-5H-benzo[7]annulen-3-ol], the IC50 is reported as 34 nM.
`CN(CCCCCCC1=C(c2ccc(F)c(O)c2)CCCc2cc(O)c(F)cc21)CCCC[S+]([O-])CCCC(F)(F)C(F)(F)F` (racemic) [Example 124, 2-Fluoro-8-(4-fluoro-3-hydroxyphenyl)-9-[6-(methyl{4-[(RS)-(4,4,5,5,5-pentafluoropentyl)sulphinyl]butyl}amino)hexyl]-6,7-dihydro-5H-benzo[7]annulen-3-ol] was tested, and the IC50 was 6 nM.
`CN(CCCCCCC1=C(c2cccc(O)c2)CCCc2cc(O)ccc21)CCCC[S+]([O-])CCCC(F)(F)C(F)(F)F` (racemic) [Example 14, 8-(3-Hydroxyphenyl)-9-[6-(methyl{4-[(RS)-(4,4,5,5,5-pentafluoropentyl)sulphinyl]butyl}amino)hexyl]-6,7-dihydro-5H-benzo[7]annulen-3-ol] gave an IC50 of 2 nM.
For `O=S(=O)(CCCN(CCO)CCCCCCC1=C(c2cccc(O)c2)CCCc2cc(O)ccc21)CCCC(F)(F)C(F)(F)F` [Example 91, 9-{6-[(2-Hydroxyethyl){3-[(4,4,5,5,5-pentafluoropentyl)sulphonyl]propyl}amino]hexyl}-8-(3-hydroxyphenyl)-6,7-dihydro-5H-benzo[7]annulen-3-ol], the IC50 was 3 nM.
Compound `CCN(CCCCCCC1=C(c2cccc(O)c2)CCCc2cc(O)ccc21)CCCS(=O)(=O)CCCC(F)(F)C(F)(F)F` [Example 90, 9-[6-(Ethyl{3-[(4,4,5,5,5-pentafluoropentyl)sulphonyl]propyl}amino)hexyl]-8-(3-hydroxyphenyl)-6,7-dihydro-5H-benzo[7]annulen-3-ol] has an IC50 of 2 nM.
With `CN(CCCCCC1=C(c2cccnc2)CCCc2cc(O)ccc21)CCCSCCCC(F)(F)C(F)(F)F` [Example 39, 9-[5-(Methyl{3-[(4,4,5,5,5-pentafluoropentyl)sulphanyl]propyl}amino)pentyl]-8-(3-pyridyl)-6,7-dihydro-5H-benzo[7]annulen-3-ol] the IC50 was 146 nM.
Work on `CC(C)(O)CN(CCCCCCC1=C(c2ccccc2)CCCc2cc(O)ccc21)CCCS(=O)(=O)CCC(F)(F)F` [Example 83, 9-{6-[(2-Hydroxy-2-methylpropyl){3-[(3,3,3-trifluoropropyl)sulphonyl]propyl}amino]hexyl}-8-phenyl-6,7-dihydro-5H-benzo[7]annulen-3-ol] yielded an IC50 of 7 nM.
In the case of `COCCN(CCCCCCC1=C(c2ccc(F)c(O)c2)CCCc2cc(O)c(F)cc21)CCC[S+]([O-])CCCC(F)(F)C(F)(F)F` (racemic) [Example 131, 2-Fluoro-8-(4-fluoro-3-hydroxyphenyl)-9-{6-[(2-methoxyethyl){3-[(RS)-(4,4,5,5,5-pentafluoropentyl)sulphinyl]propyl}amino]hexyl}-6,7-dihydro-5H-benzo[7]annulen-3-ol], the IC50 is reported as 2 nM.
Compound `CN(CCCCCCC1=C(c2cccc(O)c2)CCCc2cc(O)ccc21)CCCCC[S+]([O-])CCCC(F)(F)C(F)(F)F` (racemic) [Example 16, 8-(3-Hydroxyphenyl)-9-[6-(methyl{5-[(RS)-(4,4,5,5,5-pentafluoropentyl)sulphinyl]pentyl}amino)hexyl]-6,7-dihydro-5H-benzo[7]annulen-3-ol] has an IC50 of 2 nM.
Work on `CN(CCCCCCC1=C(c2cccnc2)CCCc2cc(O)ccc21)CCC[S+]([O-])CCCC(F)(F)C(F)(F)F` (racemic) [Example 43, 9-[6-(Methyl{3-[(RS)-(4,4,5,5,5-pentafluoropentyl)sulphinyl]propyl}amino)hexyl]-8-(3-pyridyl)-6,7-dihydro-5H-benzo[7]annulen-3-ol] yielded an IC50 of 8 nM.
`CN(CCCCCCC1=C(c2ccccc2)CCCc2cc(O)ccc21)CCCS(=O)(=O)CCC(F)(F)C(F)(F)F` [Example 62, 9-[6-(Methyl{3-[(3,3,4,4,4-pentafluorobutyl)sulphonyl]propyl}amino)hexyl]-8-phenyl-6,7-dihydro-5H-benzo[7]annulen-3-ol] was tested, and the IC50 was 12 nM.
`COCCCN(CCCCCCC1=C(c2cccc(O)c2)CCCc2cc(O)ccc21)CCC[S+]([O-])CCCC(F)(F)C(F)(F)F` (racemic) [Example 108, 8-(3-Hydroxyphenyl)-9-{6-[(3-methoxypropyl){3-[(RS)-(4,4,5,5,5-pentafluoropentyl)sulphinyl]propyl}amino]hexyl}-6,7-dihydro-5H-benzo[7]annulen-3-ol] showed an IC50 of 2 nM.

From patent publication US20150080438A1, “6,7-Dihydro-5H-benzo[7]annulene derivatives, processes for their preparation, pharmaceutical products comprising them and their use for preparing medicaments” (Bayer Intellectual Property GmbH, priority 2011, published 2015)
